# From patent US20080274104A1, “Targeting a Secreted Pro-Apoptotic Factor for Cancer Therapeutics” (priority 2005, published 2008)
# Where “and” joins values, the source holds several entries; their conditions need not be identical. Equal values may be shown once.
# B1: purified 24p3/NGAL: purified 24p3/NGAL lipocalin protein made by GST-bacterial method (protein, UniProt P11672 21-200, looked up)
# Neutrophil …: QDSTQNLIPAPSLLTVPLQPDFRSDQFRGRWYVVGLAGNAVQKKTEGSFTMYSTIYELQENNSYNVTSILVRDQDQGCRYWIRTFVPSSRAGQFTLGNMHRYPQVQSYNVQVATTDYNQFAMVFFRKTSENKQYFKITLYGRTKELSPELKERFTRFAKSLGLKDDNIIFSVPTDQCIDN
# Key:
# [1] = system: NGAL expression in SKBr3 cell line; assay: NGAL expression in breast cancer cell line; format: cell-based, human
# Source text: Several breast cancer cell lines were examined for NGAL expression.
# [2] = system: C3H/HeJ mice; assay: C3H/HeJ mouse leukemia model injected with BCR-ABL+ 32D cells; format: in vivo; conditions: individual mouse
# Protocol: Therefore, the present inventors wanted to determine whether the affects of anti-sense 24p3 expression in leukemia cells would produce the same effects as in the NOD/scid mouse. In these experiments, 10e6 BCR-ABL+32D cells were injected iv into 8-week old C3H/HeJ mice. Leukemia cells expressed either GFP or anti-sense 24p3 RNA or siRNA for 24p3. The GFP expressing leukemia cells induced a vigorous leukemia involving marrow, spleen, blood and liver (Table 2). Expression of anti-sense 24p3 in leukemia cells reduced the level of invasion in marrow and the spleen but not the liver. Importantly, these mice developed a vigorous ascites tumor growth of GFP+ cells, which was not observed in the GFP vector expressing leukemia cells. […]
# [3] = system: suitable targets cells; assay: Apoptosis induction with purified 24p3/NGAL; format: cell-based; conditions: GST-bacterial method protein
# Source text: These findings indicate that the Bcr-Abl oncoprotein in addition to its oncogenic effects also induces secretion of an apoptotic factor (24p3/NGAL) that causes suppression of normal hematopoiesis. […] Detailed structural analysis has shown that NGAL is an iron binding protein, and that the ligand for NGAL is a catecholate-type siderophore (Goetz et al., 2002). Whether the siderophore binding function is related to 24p3/NGAL's ability to induce apoptosis is not known. In specific embodiments, the apoptotic activity of 24p3/NGAL may require either post-translational modification in eukaryotic cells or formation of a complex with one or more factors. […] Local suppression of normal hematopoiesis by 24p3/NGAL secreted by leukemia cells would allow the leukemic clone to more readily compete, survive, infiltrate and proliferate in normal marrow and the spleen tissue environment. […] Thus, as little as one pluripotent stem cell that has acquired BCR-ABL expression by forming the Philadelphia chromosome could survive and compete in the normally active marrow environment because of its ability to secrete a cell death factor (and possibly other factors; Eaves et al., 1998; Olofsson and Olsson, 1980; Olofsson and Olsson, 1980; Skold et al., 1999) to which it is resistant. The ensuing cell death in the surrounding marrow cells would facilitate expansion of the leukemic clone in the normal marrow. […]
molecule,measurement,setting,value
Cc1ccc(S(=O)(=O)/C=C/C#N)cc1 [BAY11-7082],NGAL expression,[1],strongly inhibited
"siRNA #4: small hairpin RNA against 24p3 driven by H1 promoter, SEQ ID NO:1 (DNA GGCAGCTTTACGATGTACATTCAAGAGATGTACATCGTAAAGCTGCCTTTTTTCCAAT; expressed or natural sequence)",Ascites,[2],Yes
same,Solid tumor,[2],Yes
same,"GFP positive cells, Ascites",[2]; listed as 32Dp210 siRNA,90% (2×) and 80% and 100% (2×)
same,"GFP positive cells, BM",[2]; listed as 32Dp210 siRNA,<1% and 5% (3×) and No
same,"GFP positive cells, Liver",[2]; listed as 32Dp210 siRNA,20% and 50% and 40% and 10% and 25%
same,"GFP positive cells, PB",[2]; listed as 32Dp210 siRNA,50% and <1% and 20%
same,"GFP positive cells, Spleen",[2]; listed as 32Dp210 siRNA,5% and 25% and <1% and No and 20%
same,"GFP positive cells, Tumor",[2]; listed as 32Dp210 siRNA,40% and 70%
same,Spleen wt,[2]; listed as 32Dp210 siRNA,160 mg and 110 mg and 40 mg and 90 mg and 130 mg
B1,apoptosis induction,[3],unable to induce apoptosis
